Data on twelve compounds can be found in publication PMC9352478, “Cephalosporin as Potent Urease and Tyrosinase Inhibitor: Exploration through Enzyme Inhibition, Kinetic Mechanism, and Molecular Docking Studies” (BioMed Research International, 2022).

One assay has as its target T1, jack bean urease (Canavalia ensiformis, UniProt P07374).
T1 construct: purchased Sigma
Kind of assay: biochemical. The protocol:
To evaluate the urease enzyme activity, assay described by Weatherburn 1967 was performed. In 96-well plate, 10 μl of enzyme (jack bean urease, 5 U/ml), 40 μl buffer (100 mM urea, 0.01 M K2HPO4, 1 mM EDTA, and 0.01 M […], pH 8.2), and 20 μl of test drug were loaded. Following 15 min incubation at 37°C, 40 μl of alkali reagent (0.5%, w/v NaOH and 0.1% active chloride NaOCl) and 40 μl of phenol reagents (1%, w/v phenol and 0.005%, w/v sodium nitroprusside) were added.

A further assay deals with T2, mushroom tyrosinase (Agaricus bisporus, UniProt C7FF04).
T2 construct: purchased Sigma
T2 sequence (C7FF04 1-392 limits assumed): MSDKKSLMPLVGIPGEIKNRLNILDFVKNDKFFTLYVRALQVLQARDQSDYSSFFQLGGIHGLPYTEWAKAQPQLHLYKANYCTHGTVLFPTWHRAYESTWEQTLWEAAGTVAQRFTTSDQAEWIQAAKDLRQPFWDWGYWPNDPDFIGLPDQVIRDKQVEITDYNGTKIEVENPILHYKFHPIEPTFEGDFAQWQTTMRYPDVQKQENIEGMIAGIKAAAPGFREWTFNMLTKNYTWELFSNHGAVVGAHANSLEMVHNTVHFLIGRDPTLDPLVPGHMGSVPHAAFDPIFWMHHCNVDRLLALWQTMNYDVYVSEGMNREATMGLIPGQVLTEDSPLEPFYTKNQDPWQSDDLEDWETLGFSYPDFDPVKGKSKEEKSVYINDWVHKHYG
Kind of assay: Tyrosinase enzyme kinetics and inhibition mechanism (Lineweaver-Burk, Dixon, diphenolase activity plots). Type of assay: biochemical. The following applies: for Mode of tyrosinase inhibition: Lineweaver-Burk plot, oxidation of L-DOPA; for Reversible or irreversible tyrosinase inhibition: diphenolase activity, enzyme activity vs enzyme concentration 0.44-14 μg/ml; for ESI dissociation constant (Ki'), tyrosinase: secondary replot of Lineweaver-Burk intercept; for ESI dissociation constant (Ki'), tyrosinase / Ki: substrate L-DOPA; for Ki: secondary replot of Lineweaver-Burk slope, read-out: EI dissociation constant (Ki), tyrosinase. The protocol:
(§1) To this end, the Lineweaver-Burk plots of 1/absorbance versus 1/urea and 1/absorbance versus 1/L-DOPA were plotted. In all kinetic studies, drug concentrations (as indicated in Lineweaver-Burk plot) and respective substrates, urea in buffer (0.063 to 2 mM) for urease and L-DOPA (0.06 to 2 mM) for tyrosinase, were added and plates were incubated for 10 min at 37°C. Later, respective enzymes were added in plates and absorbance (wavelengths same as above) was monitored for 5 min with 1 min interval. The Lineweaver-Burk plot showing type of enzyme inhibition was plotted as inverse of velocities (1/V) versus inverse of substrate concentration 1/[S] Mm^−1. Later, inhibition constant (Ki) was evaluated by both the Dixon plot and from Lineweaver-Burk plot, by secondary replot of slope versus concentrations of inhibitor.
(§2) To this end, a plot among remaining enzyme activity versus various concentrations of respective enzymes in the presence of drug concentrations (as indicated in graph) was devised as determinant of reversible or irreversible behaviour of enzyme inhibition.

Another assay addresses T3, urease (Canavalia ensiformis, UniProt P07374).
T3 construct: purchased Sigma
Kind of assay: Urease enzyme kinetics and inhibition mechanism (Lineweaver-Burk, Dixon, enzyme activity vs enzyme concentration plots). The assay is classed as biochemical, jack bean. The settings on record: for Mode of urease inhibition: Lineweaver-Burk plot; for Reversible or irreversible urease inhibition: enzyme activity vs enzyme concentration 0.44-14 μg/ml; for ESI dissociation constant (Ki'), urease: secondary replot of Lineweaver-Burk intercept, substrate urea. The method, then:
as §1, §2

Structures are written as SMILES. “Also recorded” adds a separate entry of the source. Like-named read-outs stand apart in the source and are kept apart here.

T3 sequence (P07374 whole entry, looked up): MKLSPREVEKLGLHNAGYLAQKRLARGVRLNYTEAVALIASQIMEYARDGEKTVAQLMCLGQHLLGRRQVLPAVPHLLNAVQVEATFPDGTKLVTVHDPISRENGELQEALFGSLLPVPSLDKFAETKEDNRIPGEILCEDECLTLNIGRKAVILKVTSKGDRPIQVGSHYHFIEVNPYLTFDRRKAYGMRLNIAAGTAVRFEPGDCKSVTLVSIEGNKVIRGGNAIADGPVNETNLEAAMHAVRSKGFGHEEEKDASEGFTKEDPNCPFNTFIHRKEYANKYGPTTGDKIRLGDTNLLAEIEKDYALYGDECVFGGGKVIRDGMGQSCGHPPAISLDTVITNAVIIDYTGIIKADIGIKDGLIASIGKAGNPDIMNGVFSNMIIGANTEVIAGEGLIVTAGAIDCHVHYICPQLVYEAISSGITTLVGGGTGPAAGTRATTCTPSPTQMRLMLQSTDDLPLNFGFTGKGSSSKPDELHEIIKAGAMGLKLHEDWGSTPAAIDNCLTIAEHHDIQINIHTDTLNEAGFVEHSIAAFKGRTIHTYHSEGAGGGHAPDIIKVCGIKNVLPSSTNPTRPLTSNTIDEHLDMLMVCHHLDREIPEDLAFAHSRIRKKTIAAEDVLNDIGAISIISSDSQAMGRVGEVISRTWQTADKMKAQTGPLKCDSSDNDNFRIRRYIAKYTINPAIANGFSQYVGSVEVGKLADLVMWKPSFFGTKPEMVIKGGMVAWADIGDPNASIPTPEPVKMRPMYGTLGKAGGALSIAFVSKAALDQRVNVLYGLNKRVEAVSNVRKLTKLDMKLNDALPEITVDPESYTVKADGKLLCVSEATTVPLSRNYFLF
T1 sequence (P07374 whole entry, looked up): as above

On to `CC1=C(C(=O)O)N2C(=O)[C@@H](NC(=O)[C@H](N)c3ccccc3)[C@H]2SC1` [Cephalexin], for which, on jack bean urease, the IC50 (in general, the concentration that gives 50% inhibition) was 370 ± 46 µM.

At jack bean urease, `C=CC1=C(C(=O)O)N2C(=O)[C@@H](NC(=O)/C(=N\OCC(=O)O)c3csc(N)n3)[C@H]2SC1` [Cefixime trihydrate] registered an IC50 of 180 ± 14 µM.

Compound `CC1=C(C(=O)O)N2C(=O)[C@@H](NC(=O)[C@H](N)C3=CCC=CC3)[C@H]2SC1` [Cephradine] yielded an IC50 against jack bean urease of 120 ± 9 µM.

`COCC1=C(C(=O)OC(C)OC(=O)OC(C)C)N2C(=O)[C@@H](NC(=O)/C(=N\OC)c3csc(N)n3)[C@H]2SC1` (stereo partly shown) [Cefpodoxime proxetil] had an IC50 on jack bean urease of 100 ± 14 µM.

With `CO/N=C(\C(=O)N[C@@H]1C(=O)N2C(C(=O)O)=C(CSc3nc(=O)c(=O)[nH]n3C)CS[C@H]12)c1csc(N)n1` [Ceftriaxone sodium], at mushroom tyrosinase, the “Mode of tyrosinase inhibition” value was “mixed-type, preferentially competitive”; the “Reversible or irreversible tyrosinase inhibition” value is “irreversibly; also recorded: irreversible”; the “ESI dissociation constant (Ki'), tyrosinase” value came out at 600 µM; the Ki (usually the equilibrium dissociation constant of an inhibitor or competing ligand from its target) was determined as 100 µM. On urease, the Ki was 700 µM; the “Mode of urease inhibition” value is “competitive”; the “Reversible or irreversible urease inhibition” value was “irreversibly”; the “ESI dissociation constant (Ki'), urease” value was 6000 µM. The IC50 against jack bean urease was 80 ± 4 µM.

Turning to `CC(C)(O/N=C(\C(=O)N[C@@H]1C(=O)N2C(C(=O)[O-])=C(C[n+]3ccccc3)CS[C@H]12)c1csc(N)n1)C(=O)O` [Ceftazidime], the IC50 at jack bean urease turned out to be 91 ± 7 µM.

At jack bean urease, `CO/N=C(\C(=O)N[C@@H]1C(=O)N2C(C(=O)O)=C(COC(N)=O)CS[C@H]12)c1ccco1` [Cefuroxime] gave an IC50 of 180 ± 9 µM.

In turn, `CO/N=C(\C(=O)N[C@@H]1C(=O)N2C(C(=O)[O-])=C(C[N+]3(C)CCCC3)CS[C@H]12)c1csc(N)n1` [Cefepime] yielded an IC50 at jack bean urease of 190 ± 37 µM.

In the case of `CO/N=C(\C(=O)N[C@@H]1C(=O)N2C(C(=O)O)=C(COC(C)=O)CS[C@H]12)c1csc(N)n1` [Cefotaxime sodium], at mushroom tyrosinase, the “Mode of tyrosinase inhibition” value is “mixed-type, preferentially competitive”; the “Reversible or irreversible tyrosinase inhibition” value was “irreversibly; also recorded: irreversible”; the “ESI dissociation constant (Ki'), tyrosinase” value stood at 800 µM; the Ki amounted to 70 µM. In addition, on urease, the Ki was 120 µM; the “Mode of urease inhibition” value was “competitive”; the “Reversible or irreversible urease inhibition” value is “irreversibly”; the “ESI dissociation constant (Ki'), urease” value is 30000 µM. Moreover, at jack bean urease, the IC50 was 60 ± 4 µM.

Regarding `NC(N)=S` [Thiourea], the IC50 at jack bean urease (jack bean urease 5 U/ml, 100 mM urea, pH 8.2, OD625 nm, read-out: Jack bean urease inhibition IC50 ± SEM) was determined as 19 ± 2 µM.

Compound `N[C@@H](C(=O)N[C@@H]1C(=O)N2C(C(=O)O)=C(Cl)CS[C@H]12)c1ccccc1` [Cefaclor] gave an IC50 at jack bean urease of 170 ± 16 µM.

On to `CC1=C(C(=O)O)N2C(=O)[C@@H](NC(=O)[C@H](N)c3ccc(O)cc3)[C@H]2SC1` [Cefadroxil], for which the midpoint of inhibition at jack bean urease, the IC50, lay at 220 ± 6 µM.
